Data taken from US7235590B2, “Use of treosulfan and derivatives thereof for treating multiple sclerosis” (Medac Gesellschaft fur Klinische Spezialpraparate mbH, priority 2002, dated 2007).

How the values were obtained:
[1] = test system: myelin oligodendrocyte glycoprotein (MOG) induced experimental autoimmune encephalomyelitis (EAE); test: MOG-induced experimental autoimmune encephalomyelitis (EAE) in DA rats, clinical course; assay type: in vivo
Description: Using the example of experimental autoimmune encephalomyelitis (EAE) which is recognized as animal model of human MS, the effectiveness of treosulfan was first of all examined. […] In the first trials, treosulfan was applied on the day of immunisation, in another on day 14 following immunisation.
Firstly, several trials for the determination of the dosage of treosulfan were carried out in DA rats, a strain of rat particularly suitable for these trials (Dark Agouti strain) with myelin oligodendrocyte glycoprotein (MOG) induced experimental autoimmune encephalomyelitis (EAE). These rats represent an excellent model of multiple sclerosis (MS) since the clinical development and the lesion morphology (inflammation, demyelination, loss of axons and nerve cells) of MS can be reproduced.
DA rats (10 animals per group) were treated either with a single dose of treosulfan (0.5 g/kg bodyweight) on the day of immunisation (p.i.) or with a three times repeated treosulfan application (0.5 g/kg bodyweight per application) at intervals of 1 day. PBS (phosphate buffered salt solution) was administered as control. In a further experiment, treosulfan (single dose: 0.5 g/kg bodyweight) was administered 2 weeks after immunisation. The total number of rats was 30 animals. The animals were observed clinically for the period of 40 days after initiation of the experiment and regularly examined neurologically.
FIGS. 3 and/or 3a are different representations of the experiment in which treosulfan was administered on day 14 following immunisation.

interleukin 12 (IL-12) = test: Quantitative PCR for IL-12 in MOG-EAE rats; assay type: in vivo, DA rats; details: treatment on day 0
Description: (§1) In a second experiment, five rats each were characterised immunologically on day 12 and day 40 (total number of animals: n=30) following the immunisation with respect to T and B cell response (EliSpot (Autoimmun Diagnostika GmbH, D-72479 Strassberg) for IFN-secreting cells, proliferations, auto-antibody analysis). (R. Weissert et al., J. Immunol. 160 […], 681–690).
(§2) It was, moreover, observed that the interleukin 12 (IL-12) and/or interferon-β (IFN-β) values were reduced in the treosulfan group (FIG. 16, 17). (R. Weissert et al., J. Immunol. 166 (2001), 7588–7599).
FIG. 17: Quantitative PCR for IL-12 treatment with treosulfan on day 0.

interferon-β (IFN-β) = test: Quantitative PCR for IFN in MOG-EAE rats; assay type: in vivo, DA rats; details: treatment on day 0
Description: as §1, §2
FIG. 16: Quantitative PCR for IFN-treatment with treosulfan on day 0.

secondary progressive MS = test: Healing trial on patients with secondary progressive MS; assay type: in vivo
Description: In the course of a first healing trial, 5 patients suffering from secondary progressive MS (SPMS patients) were treated. They consisted of 3 men […]/62 and two women […].
As part of the therapy, treosulfan was administered in the form of a solution suitable for intravenous application (infusion). The patients were treated with a dosage of 5 g/m^2 body surface in each case at intervals of 4 weeks in the first quarter. Subsequently, a single treosulfan application (5 g/m^2 of treosulfan) took place per quarter.
In the case of two patients, an improvement of the ambulation index (S. L. Hauser et al. N. Engl. J. Med. 308 (1983) 173–178) was observed.

[2] = Tolerance and haematological characterisation in MOG-EAE rats; assay type: in vivo, DA rats
Description: To analyse the haematological status, blood was taken from the rats on day 0, day 5, day 14, and day 53 following immunisation and a determination of haemoglobin (Hb), reticulocytes, leukocytes, thrombocytes and crythrocytes carried out.
The tolerance of treosulfan is illustration in FIGS. 5–15.

For O=C1c2c(O)ccc(O)c2C(=O)c2c(NCCNCCO)ccc(NCCNCCO)c21 [mitoxantrone], the “effectiveness compared with the treosulfan group” value ([1]; same trial conditions, single i.p. treatment on the day of immunisation) was “no greater effectiveness”.
In the case of CS(=O)(=O)OC[C@H](O)[C@@H](O)COS(C)(=O)=O [treosulfan, (2S,3S)-threitol-1,4-bismethane sulphonate], the “interleukin 12 (IL-12) values” (interleukin 12 (IL-12)) was “reduced”, the “interferon-β (IFN-β) values” (interferon-β (IFN-β)) was “reduced” and the “patients with improvement of the ambulation index” value (secondary progressive MS; 5 SPMS patients, 5 g/m^2 body surface i.v. infusion every 4 weeks in the first quarter, then once per quarter) was “two”. The substance-related secondary effects (secondary progressive MS; 5 SPMS patients, 5 g/m^2 i.v. infusion) was “No substance-related secondary effects were observed”, the “disease development in MS patients” value (secondary progressive MS; summary statement) was “clear improvement” and the tolerance (secondary progressive MS; summary statement) was “extremely well tolerated”. The “changes to the blood picture (Hb, reticulocytes, leukocytes, thrombocytes, erythrocytes)” value ([2]; blood taken day 0, 5, 14 and 53 following immunisation) was “not documented”, the weight ([2]; single dose of 1 g/kg i.p., at the beginning of the treatment) was “substantial decrease in weight” and the “effectiveness in comparison with the untreated control group” value ([1]; FIGS. 1-3a) was “confirm first of all the effectiveness”. For the same compound, the animals still alive ([1]; day 53, untreated control group 2 out of 8) was 7 out of 8, the “suppression of the disease” value ([1]; single dose of 1 g/kg bodyweight, intraperitoneal) was “capable of suppressing the disease” and the “disease course in contrast to untreated control group” value ([1]; treosulfan applied on day 14 following immunisation) was “stabilisation”.
